Test results published in paper PMC8608343 (PLoS ONE, 2021).
Converted amounts (≈) assume the structure as drawn.

Tests used:
Leishmania donovani [1] = conditions: cited from earlier work
[2] = test system: Leishmania donovani amastigotes in RAW macrophage cells; test: Antileishmanial activity against macrophage-amastigotes (MTT assay); type: cell-based; conditions: for IC50: Leishmania donovani, Macrophage, read-out: IC50 (μg/ml) ±SD amastigote; for IC50 / IC50 (μg/ml) ±SD amastigote: amastigotes in RAW macrophages, MTT; for Therapeutic Index (TC50/IC50) amastigotes: TC50 RAW / IC50 amastigote
Protocol: The RAW macrophage cells were infected with promastigotes at a density of 1:10 ratio, respectively for 12 hrs and the non-phagocytosed promastigotes and media removed by aspiration. The RAW macrophages cells containing the internalized amastigote cells were treated with the compounds to test for their growth inhibitory potentials as previously described. The 3-(4,5-Dimethylthiazol-2-yl)-2,5-diphenyltetrazolium bromide (MTT) assay was also used to determine the parasite viability. […] was measured with a Varioskan Lux Elisa plate reader at a wavelength of 570 nm.

[3] = test system: Leishmania donovani promastigotes; test: Antileishmanial activity against promastigotes (MTT assay); type: cell-based; conditions: for IC50: Leishmania donovani, read-out: IC50 (μg/ml) ±SD promastigote; for IC50 / IC50 (μg/ml) ±SD promastigote: 96 hrs at 25° C, MTT, mean of three experiments; for Therapeutic Index (TC50/IC50) promastigotes: TC50 RAW / IC50 promastigote
Excerpt: Amphotericin B was used as a positive control. The 3-(4,5-Dimethylthiazol-2-yl)-2,5-diphenyltetrazolium bromide (MTT) assay was used to determine the parasite viability as previously described.

[4] = test system: Leishmania donovani promastigotes; test: Cell cycle analysis by flow cytometry; type: cell-based; conditions: 2x IC50, 24 hrs, versus untreated
Protocol: The analysis was done using the protocol as designed in the Guava cell cycle reagent manual (catalog No. 4500–0220). […] Both treated and untreated Leishmania cells were incubated for 24 hrs, samples read using a flow cytometer (BD LSR Fortessa X-20 analyzer BD Biosciences), and the respective cell counts analyzed in the G0/G1, S and G2/M Phases. Data generated was further analyzed using the FlowJo V10 software.

[5] = test system: Leishmania donovani promastigotes; test: Growth kinetics and cytocidal/cytostatic (growth reversibility) assay; type: cell-based; conditions: 1 μg/ml, 120 hrs treatment, then 96 hrs in fresh media
Protocol: The compounds (at 1 μg/ml) were tested for their effects on the growth kinetic pattern against the promastigotes of L. donovani. The parasite cells (2 x 10^5 cells/ml) were incubated at 25° C in the presence of the test compounds in M199 supplemented with 10% FBS. Amphotericin B treated parasites (0–50 μg/ml) were used as the positive control while the untreated promastigotes in medium alone served as the negative control. Viable cells were counted every 24 hrs for a total of 120 hrs as indicated in previous studies.
The cytocidal/cytostatic effect of the test compounds were assessed by analyzing the treated and untreated parasites after 120 hrs of incubation. Cells were washed twice with fresh M199, resuspended in complete M199 media and incubated further for 96 hrs. The viable cells were then counted microscopically.

O+ human red blood cells = test: Haemolytic potential; conditions: 2% haematocrit, up to 100 μg/ml
Protocol: The compounds were tested against the O^+ human red blood cells (obtained from the Malaria laboratory of WACCBIP) at a density of 2% haematocrit for their ability to lyse erythrocytes upon incubation. Here, a concentration of up to 100 μg/ml of compounds was used, and the 50% haemolytic concentration (HC50) of the compounds were determined by analysis of dose-response curves as described.

[6] = test system: RAW 264.7 murine macrophage cell line; test: Cytotoxicity against mammalian RAW macrophage cell line (MTT assay); conditions: 48 hrs, 50% cytotoxic concentration
Excerpt: Here, amphotericin B was used as a positive control and the negative control was untreated RAW cell line.

[7] = test system: Leishmania donovani promastigotes; test: Externalization of phosphatidylserine, Annexin V-FITC / PI flow cytometry; type: cell-based; conditions: 2x IC50, 24 hrs; for effect on externalization of phosphatidylserine (apoptotic potential): p-value = 0.9926
Protocol: A double staining of treated/ untreated promastigotes of Leishmania donovani (2 x 10^5 cells/ml) with Annexin V-FITC and Propidium Iodide (PI) was done to determine the apoptotic and necrotic effects of the some of the established cytocidal compounds amongst the eighteen MMV compounds studied. Treatment was set at 2x IC50 concentrations of the respective test compounds against a negative control of untreated promastigote cells in a 24 hrs incubation period. The cells were then prepared using the Annexin V-FITC apoptosis detection kit following the Sigma protocol (Catalog Number: APOAF). Further treatment and analysis of cells was done as shown previously.

[8] = test system: Leishmania donovani promastigotes; test: Morphological and mitochondrion effects by fluorescence microscopy (DAPI, MitoTracker); type: cell-based
Protocol: Their mitochondrial integrity were analyzed using a slightly modified DAPI and Mitotracker dye protocol as described by Amisigo and colleagues.

[9] = test system: Leishmania donovani amastigotes; test: ROS generation in treated amastigotes (H2DCFDA); type: cell-based; conditions: 100, 50 or 25 μM, 24 hrs
Protocol: (§1) The degree of reactive oxygen species (ROS) production in treated promastigote and amastigote cells of L. donovani were assessed using the H2DCFDA (2’,7’-dichlorodihydrofluorescein diacetate) rich fluorescent dye (MAK145 Sigma-Aldrich) ROS detection kit. […] Amoxicillin was used as a positive control for pro-oxidative generation while Vitamin C was used as a positive control for anti-oxidative potential. The treated and untreated cells were then suspended in PBS, washed, and resuspended in PBS, then incubated with the ROS detection master mix for 1 hr as instructed by the protocol. The cells were analyzed for intracellular ROS generation by measuring the fluorescence intensity which is proportional to the ROS production level using the Varioskan Lux Elisa microplate reader (Thermo Fischer Scientific, USA) at a wavelength of 605 nm.

[10] = test system: Leishmania donovani promastigotes; test: ROS generation in treated promastigotes (H2DCFDA); type: cell-based; conditions: 100, 50 or 25 μM, 72 hrs
Protocol: as §1

Leishmania donovani [11] = test system: Leishmania donovani; design: method as in PMID 33268145; conditions: dosed at 50 mg/kg, mouse model of visceral leishmaniasis; cited from earlier work

Row | Structure (SMILES) | efficacy among water-soluble ferrocenylquinoline derivatives (Leishmania donovani [1]) | IC50 [2] | Therapeutic Index (TC50/IC50) amastigotes [2] | IC50 [3] | Therapeutic Index (TC50/IC50) promastigotes [3] | increase in parasites at the S phase [4] | cytocidal/cytostatic effect upon drug withdrawal [5] | HC50 (O+ human red blood cells) | TC50 (μg/ml) ±SD RAW [6] | more necrotic cells compared to negative control [7] | effect on externalization of phosphatidylserine (apoptotic potential) [7] | cells with lost kinetoplast DNA and enlarged nuclear DNA ([8]; 2x IC50, 24 hrs) | morphological / mitochondrial changes after 72 hrs ([8]; 2x IC50, 72 hrs) | IC50 (μg/ml) ±SD amastigote [2] | ROS generation effect in amastigotes [9] | IC50 (μg/ml) ±SD promastigote [3] | ROS generation effect in promastigotes [10] | morphological / mitochondrial changes after 24 hrs ([8]; 2x IC50, 24 hrs) | nuclear/ kinetoplast DNA degenerated ([8]; 2x IC50, 72 hrs) | parasite burden reduction (Leishmania donovani [11])
1 | C1CCCC1.CN(CCn1cc(C2CCCC2)nn1)c1ccnc2cc(Cl)ccc12.I.[Fe] [CQFC1] | most efficacious of the molecules | – | – | – | – | – | – | – | – | – | – | – | – | – | – | – | – | – | – | –
2 | CC1COC(Cn2cncn2)(c2ccc(Oc3ccc(Cl)cc3)cc2Cl)O1 (stereo not shown) [Compound C06A, Difenoconazole, reference compound] | – | 4.6 ± 0.004 µg/mL (≈ 11.3 µM) | 21.74 | 0.21 ± 0.008 µg/mL (≈ 0.517 µM) | 476.19 | 1.5 fold | cytocidal effect | >100 µg/mL | >100 µg/mL | ~17% | none of the compounds showed any significant effects | 60% | parasite clearance in most fields | – | – | – | – | – | – | –
3 | O=C(Nc1ccccc1-c1nc2c(C(=O)O)cccc2o1)c1ccccc1 [Compound C06D] | – | – | 0.13 | – | 0.06 | – | cytocidal effect | >100 µg/mL | 0.39 ± 0.010 µg/mL (≈ 1.09 µM) | – | – | – | – | 3.0 ± 0.001 µg/mL (≈ 8.37 µM) | pro-oxidative effect | >6.25 µg/mL | anti-oxidative effect | – | – | –
4 | Cc1noc(C)c1COc1cccc(C(=O)N=c2[nH]cccc2C)c1 [Compound D05A] | – | 3.8 ± 0.03 µg/mL (≈ 11.3 µM) | 26.32 | 0.2 ± 0.02 µg/mL (≈ 0.593 µM) | 500 | 1.5 fold | cytocidal effect | >100 µg/mL | >100 µg/mL | about 6.5% | none of the compounds showed any significant effects | – | most of the fields had total parasite clearance | – | – | – | anti-oxidative effect | did not show any obvious abnormalities | 90% | –
5 | CNC(=O)c1nn(C)c2c1C(C)(C)Cc1cnc(Nc3ccc(N4CCN(C)CC4)cc3)nc1-2 [Compound H02B] | – | – | 0.02 | – | 0.92 | – | cytocidal effect | >100 µg/mL | 0.11 ± 0.010 µg/mL (≈ 0.239 µM) | – | – | – | – | >6.25 µg/mL | pro-oxidative effect | 0.12 ± 0.150 µg/mL (≈ 0.261 µM) | anti-oxidative effect | – | – | –
6 | O=[N+]([O-])c1cn2c(n1)O[C@@H](COc1ccc(-c3ccc(F)cc3)nc1)CC2 [DNDI-0690] | – | – | – | – | – | – | – | – | – | – | – | – | – | – | – | – | – | – | – | 96%
